Laboratory results published in patent US20240122939A1, “THERAPIES FOR THE TREATMENT OF DISEASES AND DISORDERS ASSOCIATED WITH ABNORMAL EXPRESSION OF CDKL5 GENE” (THE REGENTS OF THE UNIVERSITY OF CALIFORNIA, priority 2021, published 2024).

Legend:
[1] = system: CDD spheres; experiment: Cellular migration after drug treatment (outward radial migration from plated spheres); format: cell-based, human; conditions: 1 μM, spheres treated for 3 weeks, migration evaluated 8 days after plating
Method: Cellular migration. Three-week old spheres were treated for 3 additional weeks with 1 μM of selected compounds. Cellular migration was evaluated 8 days after spheres were plated onto poly-L-ornithine/laminin-coated plates. The outward radial migration was measured using NeuronJ plugin on the Fiji platform. Next, these lead compounds were investigated for their ability to ameliorate CDD cellular phenotype. Following a similar pharmacological strategy, spheres were treated for 3 weeks, and cellular migration was evaluated after plating.

[2] = system: CDD spheroids; experiment: HT cell viability (CellTiter Glo 3D Cell Viability Assay); format: cell-based, human; conditions: 1 μM, 3 weeks treatment, CDD spheroids at 6 weeks of differentiation
Method: HT cell viability. To determine any cytotoxic effect of the drug treatment on the neural culture, the CellTiter Glo 3D Cell Viability Assay (Promega, Madison, WI, USA) was performed according to the manufacturer's instructions. Briefly, following the intracellular calcium oscillation recording, the spheroids were extensively washed with PBS for removal of the calcium dye. Next, cells were incubated with CellTiter Glo Reagent for 30 min at room temperature and the number of viable cells was estimated based on the amount of ATP present in the culture. The luminescent signal was captured using a PHERAstar FSX Microplate Reader (BMG Labtech, Ortenberg, Germany).
Next, a unique library of 1112 neuronal signaling compounds was screened by chronically treating 3-week-old CDD spheroids in triplicate at 1 μM for 3 weeks (FIG. 5D; FIG. 10). The calcium peaks' baseline features were determined solely in the presence of each vehicle (DMSO or water) to avoid any confounding effect on the oscillatory activity (FIG. 5E and FIG. 10A-D). Similarly, the result from each compound was normalized against its vehicle control (DMSO or water). To detect potential toxic effects of specific drugs, spheroid size and cell viability were monitored (FIG. 5F-G).

[3] = system: CDD spheroids (cortical neurons and astrocytes derived from human iPSCs); experiment: HT calcium oscillation assay in CDD spheroids (high throughput screening, Scalar Perturbation and Parameter Recovery analysis); format: cell-based; conditions: for SP ranking (Scalar Perturbation): smaller SP = closer to control; for EC50: Homo sapiens, iPSC, six concentrations 0.0003 to 1 μM, nonlinear regression fit, n=4 spheroids per concentration, read-out: EC50 (dose-response of Parameter Recovery percentage)
Excerpt: CDD High Throughput Screening (HTS) platform development. An HTS platform for CDD was developed. Briefly, the HTS system relies on spheroids derived from human iPSCs that comprise a balanced culture of cortical neurons and astrocytes. These spheroids display quantifiable, robust and uniform spontaneous calcium oscillations which correlated with synchronous neuronal activity. The CDD HTS platform uses cells derived from CDD1 and Controll lines.
Chemical library and drug treatment. The compound library used in this study comprises a unique collection of 1112 compounds with biological activity used for neurologic research and associated assays; of which two-thirds are FDA-approved drugs (SelleckChem, Houston, TX, USA). Three-week-old CDD spheroids received chronic treatment three-times per week, during three weeks. All compounds were tested at 1 μM in three technical replicates; vehicle controls (DMSO or water) were included in multiple replicates. The dose-response assay comprehended six concentrations ranging from 0.0003 to 1 μM, in four technical replicates.
HT Calcium oscillation assay. To assess the intracellular calcium oscillations in CDD and control cortical spheroids, cells were incubated with the FLIPR Calcium 6 Kit (Molecular Devices LLC, San Jose, CA, USA). Briefly, cells were pre-loaded with Calcium 6 Dye for 2 h prior to the recording. The dye interacts with intracellular calcium and changes in fluorescence occur according to increased or decreased calcium concentration. The peaks observed correlate with synchronous neural activity in the spheroids. The kinetics of intracellular calcium oscillations was determined using the FLIPR Tetra High-Throughput Cellular Screening System (Molecular Devices LLC): the fluorescence intensity was set at 515-575 nm following excitation at 470-495 nm for 10 min at a frequency of 3 Hz; the exposure time per read was 0.4 s, the gain was set to 30, and the excitation intensity was set to 40%. The instrument temperature was kept at 37° C.
HT screening analysis. A multiparametric analysis of representative descriptors of the intracellular calcium oscillation was performed. The features used include: 1. Peak count; 2. Average (Avg) Peak Height (Amplitude); 3. Peak Height standard deviation (s.d.); 4. Avg Peak Width, 5. Peak Width s.d.; 6. Avg Peak Spacing; 7. Peak Spacing s.d.; 8. Avg Peak Rise Time; 9. Peak Rise Time s.d.; 10. Avg Peak Decay Time; 11. Peak Decay Time s.d.; 12. Class 1 Peak Count; 13. Class 2 Peak Cound; 14. Class 3 Peak Count; 15. Singular Peak Count; 16. Irregular Peak Count, and 17. Subpeak Count. For peak classification, Class 1 Peak display 100-66% of max peak height, while Class 2 and Class 3, 66-33% and 33-15%, respectively. To determine the Scalar Perturbation, the data was normalized by dividing raw parameters by the median values of controls from the same plate. Each parameter was standardized by z-score of normalized and log-transformed control values. Next, the Euclidean norm between selected parameters was calculated and averaged the Scalar Perturbation score among replicates. In the Parameter Recovery, max/min boundaries from vehicle Control were determined from corresponding plate. For each replicate, we summed the number of parameter found to be within the max/min boundaries of the Control. Next, for each replicate we divided the sum of the recovered parameter by the total number of parameters and established the percentage of parameters recovered to the Control boundaries and, averaged Parameter Recovery percentages between compound replicates.
Next, a unique library of 1112 neuronal signaling compounds was screened by chronically treating 3-week-old CDD spheroids in triplicate at 1 μM for 3 weeks (FIG. 5D; FIG. 10). The calcium peaks' baseline features were determined solely in the presence of each vehicle (DMSO or water) to avoid any confounding effect on the oscillatory activity (FIG. 5E and FIG. 10A-D). […]

[4] = system: Cdkl5 knockout mouse neurons; conditions: cited from earlier work
[5] = 1112 compounds screened at 1 μM, chronic treatment for 3 weeks, 3-week-old CDD spheroids

Q: Which “rescue of outward radial cellular migration defects in CDD” value (shortened to “rescue”) [1] does the source give for `N#Cc1ccc2[nH]c(O)c(-c3ccc(CN4CCOCC4)cn3)c2c1` [AZD1080] here?
A: able to rescue outward radial cellular migration defects

Q: What about the “effect on cell viability” value [2] of the same molecule?
A: no effect on cell viability

Q: What about the “SP ranking (Scalar Perturbation)” value [3, 5] of the same molecule?
A: 12

Q: Which “rescue” value [1] does the source give for `C[C@H](NC(=O)CCC(F)(F)F)C(=O)N[C@@H]1C(=O)N(CCO)c2ncccc2-c2ccccc21` [Crenigacestat] here?
A: able to rescue outward radial cellular migration defects

Q: And the “effect on cell viability” value [2]?
A: no effect on cell viability

Q: And the “SP ranking (Scalar Perturbation)” value [3, 5]?
A: 5

Q: What about the EC50 [3] of the same molecule?
A: 883 nM

Q: What does the source list for `COc1ccc2c(c1)[nH]c1c(C)nccc12` [Harmine]?
A: effect on cell viability [2]: excluded from the list of top candidates due to its effect on cell survival; PR ranking (Parameter Recovery) ([3]; 1112 compounds screened at 1 μM, chronic treatment for 3 weeks, 3-week-old CDD spheroids, higher PR = closer to control): second; SP ranking (Scalar Perturbation) [3, 5]: first; restoration of CDKL5-dependent synaptic defects [4]: restore CDKL5-dependent synaptic defects

Q: With `COc1cc2c(cc1OC)CC(=O)N(CCCN(C)C[C@H]1Cc3cc(OC)c(OC)cc31)CC2` [Ivabradine] as the molecule, how does the “rescue” value [1] read?
A: able to rescue outward radial cellular migration defects

Q: What about the “effect on cell viability” value [2] of the same molecule?
A: no effect on cell viability

Q: What about the “SP ranking (Scalar Perturbation)” value [3, 5] of the same molecule?
A: 10

Q: And the EC50 [3]?
A: 41 nM

Q: For `O=C(O[C@H]1CN2CCC1CC2)N1CCc2ccccc2[C@@H]1c1ccccc1` [Solifenacin], which “rescue” value [1] is on record?
A: able to rescue outward radial cellular migration defects

Q: What about the “effect on cell viability” value [2] of the same molecule?
A: no effect on cell viability

Q: What about the “SP ranking (Scalar Perturbation)” value [3, 5] of the same molecule?
A: 28
